Common to all, as to format: functional
One assay relates to Pseudomonas aeruginosa. Briefly: Antimicrobial activity against Pseudomonas aeruginosa MTCC 741 by broth dilution method. (Dilution methods test growth across graded concentrations, often in twofold steps.)
The subject of assay [1] is Aspergillus niger. Briefly: Antimicrobial activity against Aspergillus niger MTCC 282 at 150 ug after 48 hr by agar well diffusion method. The note with it: for zone of inhibition at 150 µg/disc: MTCC 282, 48 h, read-out: IZ. A general note: A growth-free zone around the sample is the usual read-out of agar diffusion tests.
Assay [2] has as its system Rhizopus arrhizus. As to the kind of experiment: Antimicrobial activity against Rhizopus oryzae MTCC 262 at 150 ug after 48 hr by agar well diffusion method. The settings on record: for zone of inhibition at 150 µg/disc: MTCC 262, 48 h, read-out: IZ.
Assay [3] has as its system Saccharomyces cerevisiae. Briefly: Antimicrobial activity against Saccharomyces cerevisiae MTCC 36 at 150 ug after 48 hr by agar well diffusion method. The settings on record: for zone of inhibition at 150 µg/disc: MTCC 36, 48 h, read-out: IZ.
The subject of assay [4] is Candida albicans. Briefly: Antimicrobial activity against Candida albicans MTCC 227 at 150 ug after 48 hr by agar well diffusion method. The note with it: for zone of inhibition at 150 µg/disc: MTCC 227, 48 h, read-out: IZ.
For assay [5], the system named is Staphylococcus epidermidis. Briefly: Antimicrobial activity against Staphylococcus epidermidis by broth dilution method.
The subject of assay [6] is Candida albicans. As to the kind of experiment: Antimicrobial activity against Candida albicans MTCC 227 at 100 ug after 48 hr by agar well diffusion method. The settings on record: for zone of inhibition at 100 µg/disc: MTCC 227, 48 h, read-out: IZ.
The subject of another assay is Escherichia coli. Briefly: Antimicrobial activity against Escherichia coli MTCC 443 by broth dilution method.
The next assay concerns Bacillus subtilis. As to the kind of experiment: Antimicrobial activity against Bacillus subtilis MTCC 441 by broth dilution method.
In assay [7] the test system is Rhizopus arrhizus. As to the kind of experiment: Antimicrobial activity against Rhizopus oryzae MTCC 262 at 100 ug after 48 hr by agar well diffusion method. The note with it: for zone of inhibition at 100 µg/disc: MTCC 262, 48 h, read-out: IZ.
The subject of a further assay is Klebsiella pneumoniae. Briefly: Antimicrobial activity against Klebsiella pneumoniae MTCC 618 by broth dilution method.
In assay [8] the test system is Saccharomyces cerevisiae. As to the kind of experiment: Antimicrobial activity against Saccharomyces cerevisiae MTCC 36 at 100 ug after 48 hr by agar well diffusion method. The note with it: for zone of inhibition at 100 µg/disc: MTCC 36, 48 h, read-out: IZ.
The subject of the next assay is Staphylococcus aureus. As to the kind of experiment: Antimicrobial activity against Staphylococcus aureus MTCC 96 by broth dilution method.
Assay [9] has as its system Aspergillus niger. As to the kind of experiment: Antimicrobial activity against Aspergillus niger MTCC 282 at 100 ug after 48 hr by agar well diffusion method. The note with it: for zone of inhibition at 100 µg/disc: MTCC 282, 48 h, read-out: IZ.
In assay [10] the test system is Candida albicans. As to the kind of experiment: Antimicrobial activity against Candida albicans MTCC 227 at 50 ug after 48 hr by agar well diffusion method. The note with it: MTCC 227, 48 h, read-out: IZ.
Assay [11] deals with Saccharomyces cerevisiae. As to the kind of experiment: Antimicrobial activity against Saccharomyces cerevisiae MTCC 36 at 50 ug after 48 hr by agar well diffusion method. The note with it: MTCC 36, 48 h, read-out: IZ.
The subject of assay [12] is Aspergillus niger. Briefly: Antimicrobial activity against Aspergillus niger MTCC 282 at 50 ug after 48 hr by agar well diffusion method. The settings on record: MTCC 282, 48 h, read-out: IZ.
Assay [13] concerns Rhizopus arrhizus. Briefly: Antimicrobial activity against Rhizopus oryzae MTCC 262 at 50 ug after 48 hr by agar well diffusion method. The settings on record: MTCC 262, 48 h, read-out: IZ.

Values after ≈ are worked out from the molar mass of the structure shown. Active and inactive are the calls of the source.

As for `c1ccc(N2CCN(c3nc4ccccc4o3)CC2)nc1`, the minimal inhibitory concentration (MIC) against Pseudomonas aeruginosa was 75 µg/mL (≈ 268 µM); in assay [5], 150 µg/mL (≈ 535 µM); against Escherichia coli, 150 µg/mL (≈ 535 µM); in the assay on Bacillus subtilis it was 150 µg/mL (≈ 535 µM); with Klebsiella pneumoniae, 150 µg/mL (≈ 535 µM); with Staphylococcus aureus, 150 µg/mL (≈ 535 µM). Moreover, the result with Aspergillus niger [1], in the assay with Rhizopus arrhizus [2], in the assay with Saccharomyces cerevisiae [3], with Rhizopus arrhizus [7], with Saccharomyces cerevisiae [8] and in the assay on Aspergillus niger [9] was inactive. For the same compound, the zone of inhibition at 150 µg/disc in the assay with Candida albicans [4] worked out at 10 mm. Moreover, the zone of inhibition at 100 µg/disc in the assay on Candida albicans [6] worked out at 8 mm.

Regarding `c1ccc2oc(N3CCCCC3)nc2c1`, the MIC (against Pseudomonas aeruginosa; in assay [5]; against Escherichia coli; against Bacillus subtilis; with Klebsiella pneumoniae; with Staphylococcus aureus) was 150 µg/mL (≈ 742 µM) throughout. The zone of inhibition at 150 µg/disc came out at 10 mm with Aspergillus niger [1], 11 mm in the assay on Rhizopus arrhizus [2], 12 mm in the assay on Saccharomyces cerevisiae [3] and 12 mm with Candida albicans [4]. The zone of inhibition at 100 µg/disc turned out to be 9 mm in the assay on Candida albicans [6], 8 mm in the assay on Rhizopus arrhizus [7], 9 mm in the assay on Saccharomyces cerevisiae [8] and 8 mm in the assay with Aspergillus niger [9].

As for `C=CCCn1c(=O)oc2ccc(Cl)cc21`, the MIC stood at 150 µg/mL (≈ 671 µM) against Pseudomonas aeruginosa; 150 µg/mL (≈ 671 µM) in [5]; 150 µg/mL (≈ 671 µM) with Escherichia coli; 150 µg/mL (≈ 671 µM) in the assay on Bacillus subtilis; 37.5 µg/mL (≈ 168 µM) against Klebsiella pneumoniae; 150 µg/mL (≈ 671 µM) against Staphylococcus aureus. Besides, the result with Aspergillus niger [1], in the assay on Saccharomyces cerevisiae [3], in the assay with Candida albicans [4], in the assay on Candida albicans [6], in the assay on Saccharomyces cerevisiae [8] and in the assay with Aspergillus niger [9] was inactive. For the same compound, in the assay with Rhizopus arrhizus [2], the zone of inhibition at 150 µg/disc turned out to be 13 mm. Moreover, the zone of inhibition at 100 µg/disc in the assay with Rhizopus arrhizus [7] came out at 9 mm.

On to `O=c1oc2ccc(Cl)cc2n1Cc1ccccc1`, for which the MIC in the assay with Pseudomonas aeruginosa was 150 µg/mL (≈ 578 µM); in [5] it was 75 µg/mL (≈ 289 µM); against Escherichia coli it was 150 µg/mL (≈ 578 µM); against Bacillus subtilis, 150 µg/mL (≈ 578 µM); with Klebsiella pneumoniae, 75 µg/mL (≈ 289 µM); with Staphylococcus aureus, 75 µg/mL (≈ 289 µM). In addition, the outcome in the assay with Aspergillus niger [1], in the assay with Rhizopus arrhizus [2], with Saccharomyces cerevisiae [3], in the assay with Candida albicans [4], in the assay with Candida albicans [6] and with Rhizopus arrhizus [7] was inactive. Moreover, the result with Saccharomyces cerevisiae [8] and in the assay on Aspergillus niger [9] was inactive.

`c1ccc2oc(N3CCOCC3)nc2c1`: the MIC in the assay with Pseudomonas aeruginosa turned out to be 150 µg/mL (≈ 734 µM); in [5] it was 150 µg/mL (≈ 734 µM); in the assay on Escherichia coli it was 150 µg/mL (≈ 734 µM); in the assay on Bacillus subtilis, 150 µg/mL (≈ 734 µM); in the assay on Klebsiella pneumoniae, 37.5 µg/mL (≈ 184 µM); in the assay with Staphylococcus aureus it was 75 µg/mL (≈ 367 µM). The outcome with Aspergillus niger [1], with Rhizopus arrhizus [2], in the assay with Saccharomyces cerevisiae [3], in the assay with Rhizopus arrhizus [7], in the assay on Saccharomyces cerevisiae [8] and in the assay on Aspergillus niger [9] was inactive. In the assay with Candida albicans [4], the zone of inhibition at 150 µg/disc was 9 mm. The zone of inhibition at 100 µg/disc with Candida albicans [6] was found to be 7 mm.

In the case of `O=c1oc2ccc(Cl)cc2n1CCCN1CCN(Cc2ccccc2)CC1`, the minimal inhibitory concentration (MIC) came to 75 µg/mL (≈ 194 µM) against Pseudomonas aeruginosa; 75 µg/mL (≈ 194 µM) in assay [5]; 150 µg/mL (≈ 389 µM) against Escherichia coli; 150 µg/mL (≈ 389 µM) against Bacillus subtilis; 150 µg/mL (≈ 389 µM) with Klebsiella pneumoniae; 150 µg/mL (≈ 389 µM) in the assay on Staphylococcus aureus. The zone of inhibition at 150 µg/disc with Aspergillus niger [1] and in the assay on Candida albicans [4] was 9 mm throughout. The result in the assay on Rhizopus arrhizus [2], in the assay with Saccharomyces cerevisiae [3], in the assay on Candida albicans [6], in the assay with Rhizopus arrhizus [7] and in the assay on Saccharomyces cerevisiae [8] was inactive. For the same compound, the zone of inhibition at 100 µg/disc with Aspergillus niger [9] is 7 mm.

For the compound `c1ccc(CN2CCN(c3nc4ccccc4o3)CC2)cc1`, the MIC against Pseudomonas aeruginosa amounted to 75 µg/mL (≈ 256 µM); in [5], 75 µg/mL (≈ 256 µM); with Escherichia coli it was 150 µg/mL (≈ 511 µM); against Bacillus subtilis, 150 µg/mL (≈ 511 µM); in the assay on Klebsiella pneumoniae it was 150 µg/mL (≈ 511 µM); with Staphylococcus aureus it was 150 µg/mL (≈ 511 µM). The zone of inhibition at 150 µg/disc in the assay on Aspergillus niger [1] came to 9 mm; in the assay on Rhizopus arrhizus [2], 9 mm; with Saccharomyces cerevisiae [3], 10 mm; in the assay on Candida albicans [4], 9 mm. In addition, the outcome with Candida albicans [6], in the assay on Rhizopus arrhizus [7] and in the assay with Aspergillus niger [9] was inactive. Further, in the assay with Saccharomyces cerevisiae [8], the zone of inhibition at 100 µg/disc amounted to 12 mm.

For the compound `C[C@@H]1[C@H](O)[C@@H](C)/C=C/C=C/C=C/C=C/C=C/C=C/C=C/[C@H](O[C@@H]2O[C@H](C)[C@@H](O)[C@H](N)[C@@H]2O)C[C@@H]2O[C@](O)(C[C@@H](O)C[C@@H](O)[C@H](O)CC[C@@H](O)C[C@@H](O)CC(=O)O[C@H]1C)C[C@H](O)[C@H]2C(=O)O` [AMPHOTERICIN B], the zone of inhibition at 50 µg/disc in the assay on Candida albicans [10] is 23.5 mm; in the assay on Saccharomyces cerevisiae [11], 22 mm; in the assay with Aspergillus niger [12], 25 mm; with Rhizopus arrhizus [13], 24 mm.

Take `CN1CCN(c2nc3ccccc3o2)CC1`: the MIC was 150 µg/mL (≈ 690 µM) against Pseudomonas aeruginosa; 75 µg/mL (≈ 345 µM) in assay [5]; 150 µg/mL (≈ 690 µM) in the assay with Escherichia coli; 150 µg/mL (≈ 690 µM) against Bacillus subtilis; 150 µg/mL (≈ 690 µM) with Klebsiella pneumoniae; 150 µg/mL (≈ 690 µM) in the assay with Staphylococcus aureus. Moreover, the outcome in the assay on Aspergillus niger [1], with Rhizopus arrhizus [2], in the assay with Saccharomyces cerevisiae [3], in the assay on Candida albicans [4], in the assay with Candida albicans [6] and with Rhizopus arrhizus [7] was inactive. For the same compound, the outcome in the assay on Saccharomyces cerevisiae [8] and with Aspergillus niger [9] was inactive.

Consider `O=c1oc2ccc(Cl)cc2n1CCCCl`, for which the minimal inhibitory concentration (MIC) (with Pseudomonas aeruginosa; in assay [5]; in the assay with Escherichia coli; against Bacillus subtilis; in the assay with Klebsiella pneumoniae; with Staphylococcus aureus) was 150 µg/mL (≈ 610 µM) throughout. Further, the zone of inhibition at 150 µg/disc with Aspergillus niger [1] is 17 mm; in the assay with Rhizopus arrhizus [2], 15 mm; with Saccharomyces cerevisiae [3], 15 mm; in the assay on Candida albicans [4] it was 19 mm. Moreover, the zone of inhibition at 100 µg/disc came out at 14 mm with Candida albicans [6], 11 mm with Rhizopus arrhizus [7], 12 mm with Saccharomyces cerevisiae [8] and 13 mm in the assay on Aspergillus niger [9].

Consider `CC(C)=CCn1c(=O)oc2ccc(Cl)cc21`, for which the minimum inhibitory concentration (MIC) with Pseudomonas aeruginosa came to 75 µg/mL (≈ 316 µM); in assay [5], 75 µg/mL (≈ 316 µM); against Escherichia coli it was 150 µg/mL (≈ 631 µM); against Bacillus subtilis it was 150 µg/mL (≈ 631 µM); against Klebsiella pneumoniae it was 150 µg/mL (≈ 631 µM); in the assay on Staphylococcus aureus, 150 µg/mL (≈ 631 µM). Moreover, the zone of inhibition at 150 µg/disc in the assay with Aspergillus niger [1] turned out to be 11 mm; in the assay with Rhizopus arrhizus [2] it was 9 mm; with Saccharomyces cerevisiae [3], 10 mm; in the assay on Candida albicans [4] it was 10 mm. In addition, the figures for the zone of inhibition at 100 µg/disc with Candida albicans [6], in the assay on Saccharomyces cerevisiae [8] and in the assay on Aspergillus niger [9] were 7 mm, 8 mm and 8 mm, respectively. The outcome with Rhizopus arrhizus [7] was inactive.

As for `O=c1oc2ccc(Cl)cc2n1CCCN1CCN(c2ccccc2)CC1`, the minimal inhibitory concentration (MIC) (against Pseudomonas aeruginosa; in assay [5]; against Escherichia coli; with Bacillus subtilis; in the assay with Klebsiella pneumoniae; against Staphylococcus aureus) was 150 µg/mL (≈ 403 µM) throughout. Also, the outcome in the assay on Aspergillus niger [1], in the assay with Rhizopus arrhizus [2], with Saccharomyces cerevisiae [3], in the assay with Candida albicans [4], in the assay on Candida albicans [6] and in the assay with Rhizopus arrhizus [7] was inactive. For the same compound, the result in the assay with Saccharomyces cerevisiae [8] and in the assay on Aspergillus niger [9] was inactive.

One may read the MIC as the smallest concentration in the dilution series that meets the test's criterion for growth inhibition. Read a high MIC as weaker potency.

Values taken from ChEMBL document CHEMBL3045696, “CsFCelite catalyzed facile N-alkylation of 2(3H)-benzoxazolones and antimicrobial properties of 2-substituted benzoxazole and 3-substituted-2(3H)-benzoxazolone derivatives” (2011).
